What was measured:
[1] = biological target: RORγ receptor (B-RORγ LBD) (Homo sapiens (Human), UniProt P51449); assay: Inhibitory activity on RORγ receptor in vitro by fluorescence resonance energy transfer (FRET); assay type: biochemical; details: average of at least two independent tests
Protocol: The inhibitory activity of compounds on RORγ receptor was determined by fluorescence resonance energy transfer (FRET) experiments. The inhibitory activity was expressed by half-inhibitory concentration (IC50).
1. Preparation of RORγ Buffer Solution
10 mL of DTT and 100 mL buffer solution were gently mixed together and ready to use.
2. Preparation of Compound Solution
(§1) 3. Preparation of Protein Mixture a. 40 nM B-RORγ LBD solution and 20 nM SA-APC solution were gently mixed together. The reaction mixture was incubated for 15 minutes at room temperature. Then 400 nM Biotin was added to the described above mixture. After gently mixed together, the resulting mixture was incubated for 10 minutes at room temperature. […]
as §1, with “b.” for “3. Preparation of Protein Mixture a.”, “Bioin-SRC1” for “B-RORγ LBD”, “10” for “20”, “SA-eu” for “SA-APC”, “together, and the” for “together. The”, “200” for “400”
d. A mixture of 0.1 μM alternative agonist
N-(2-chloro-6-fluorophenyl)-N-((20-methoxy-[1,10-biphenylyl]-4-substituted)methyl)benzenesulfonamide, 25 μL B-RORγ LBD/SA-APC and Bioin-SRC1/SA-eu mixture solution with test compound were added to one of the well of a 384-well plate, then they were centrifuged for 1 minute at 1000 rpm, and incubated at room temperature for 1 hour. The values were read on the Envision microplate detector and IC50 was calculated.

[2] = tested on: Mouse Th17 cell differentiation; assay: Inhibition of mouse Th17 cell differentiation (IL-17 by intracellular staining and flow cytometry); assay type: cell-based; details: compound at 0.3 μM, mouse spleen CD4+ T cells, 96 hours
Protocol: Experimental method: Mouse spleen CD4^+ T cells were isolated and differentiated into Th17 cells. CD4^+ T cells were cultured in the environment of anti-CD3 (0.25 μg/mL), anti-CD28 (1 μg/mL), anti-IL4 (2 μg/mL), anti-IFN-γ (2 μg/mL), TGF-β (5 ng/mL), and IL6 (20 ng/mL), and then the test compound was added. After 96 hours, the differentiation efficiency of Th17 was analyzed. Before collection of cells, PMA at 50 ng/mL and ionomycin at 500 ng/mL were added for stimulation for 4 hours, and the ratio of IL-17 was detected by intracellular staining and flow cytometry. At the same time, we used Live/Dead Cell Dye (Invitrogen) staining method to analyze the cell survival rate, to judge whether the drug had toxicity to cells, and determine the inhibition rate of the compound at a concentration of 0.3 μM on IL-17 differentiation by Th 17 cells.

RORγ receptor (B-RORγ LBD), sequence (P51449 269-508): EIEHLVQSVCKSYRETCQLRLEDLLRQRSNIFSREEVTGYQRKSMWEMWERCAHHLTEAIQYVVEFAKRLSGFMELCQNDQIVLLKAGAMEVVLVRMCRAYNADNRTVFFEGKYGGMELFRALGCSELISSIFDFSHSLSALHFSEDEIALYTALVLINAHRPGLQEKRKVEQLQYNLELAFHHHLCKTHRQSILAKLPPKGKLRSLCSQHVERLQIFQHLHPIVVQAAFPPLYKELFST

Structure (SMILES) | IC50 [1] [nM] | inhibition at 0.3 µM [2] [%]
CC(=O)NS(=O)(=O)c1ccc(CNC(=O)Nc2cc(Cl)c(-c3ccccc3OC(F)(F)F)c(Cl)c2)cc1 [Example 1-7, N-((4-((3-(2,6-dichloro-2′-(trifluoromethoxy)-[1,1′-biphen-1,1′-biphenyl]-4-yl)ureido)methyl)phenyl)sulfonyl)acetamide] | < 500 | 0 to 40
CS(=O)(=O)c1ccc(CNC(=O)Nc2cc(Cl)c(-c3ccccc3OC(F)(F)F)c(Cl)c2)cc1 [Example 1-4, 1-(2,6-dichloro-2′-(trifluoromethoxy)-[1,1′-biphenyl]-4-yl)-3-(4-(methylsulfonyl)benzyl)urea] | < 500 | 40 to 70
O=C(O)Cc1ccc(CNC(=O)Nc2cc(Cl)c(-c3ccccc3OC(F)F)c(Cl)c2)cc1 [Example 1-20, 2-(4-((3-(2,6-dichloro-2′-(difluoromethoxy)-[1,1′-biphenyl]-4-yl)ureido)methyl)phenyl)acetic acid] | < 500 | 0 to 40
O=C(O)Cc1ccc(CNC(=O)Nc2cc(Cl)c(-c3ccccc3OC(F)(F)F)c(Cl)c2)cc1 [Example 1-15, 2-(4-((3-(2,6-dichloro-2′-(trifluoromethoxy)-[1,1′-biphenyl]-4-yl)ureido)methyl)phenyl)acetic acid] |  | 70 to 100
O=C(O)Cc1ccc(CNC(=O)Nc2ccc(-c3ccccc3OC(F)(F)F)c(Cl)c2)cc1 [Example 1-18, 2-(4-((3-(2-chloro-2′-(trifluoromethoxv)-[1,1′-biphenyl]-4-yl)ureido)methyl)phenyl)acetic acid] | 500 to 5000 | 0 to 40
CN(C(=O)NCc1ccc(CC(=O)O)cc1)c1cc(Cl)c(-c2ccccc2OC(F)(F)F)c(Cl)c1 [Example 1-27, 2-(4-((3-(2,6-dichloro-2′-(trifluoromethoxy)-[1,1′-biphenyl]-4-yl)-3-methylureido)methyl)phenyl)acetic acid] | 500 to 5000 | 
O=C(O)Cc1ccc(CNC(=O)Nc2cc(F)c(-c3ccccc3OC(F)(F)F)c(F)c2)cc1 [Example 1-19, 2-(4-((3-(2,6-difluoro-2′-(trifluoromethoxy)-[1,1′-biphenyl]-4-yl)ureido)methyl)phenyl)acetic acid] | 500 to 5000 | 0 to 40
CN(Cc1ccc(CC(=O)O)cc1)C(=O)Nc1cc(Cl)c(-c2ccccc2OC(F)(F)F)c(Cl)c1 [Example 1-28, 2-(4-((3-(2,6-dichloro-2′-(trifluoromethoxy)-[1,1′-biphenyl]-4-yl)-1-methylureido)methyl)phenyl)acetic acid] | 500 to 5000 | 
Cc1cc(CNC(=O)Nc2cc(Cl)c(-c3ccccc3OC(F)(F)F)c(Cl)c2)ccc1CC(=O)O [Example 1-31, 3-(4-((3-(2,6-dichloro-2′-(trifluoromethoxy)-[1,1′-biphenyl]-4-yl)ureido)methyl)-2-methylphenyl)acetic acid] | 500 to 5000 | 
O=C(NCc1ccc(C(O)C(=O)O)cc1)Nc1cc(Cl)c(-c2ccccc2OC(F)(F)F)c(Cl)c1 (centres unmarked) [Example 1-37, 2-(4-((3-(2,6-dichloro-2′-(trifluoromethoxy)-[1,1′-biphenyl]-4-yl)ureido)methyl)phenyl)-2-hydroxyacetic acid] | < 500 | 
Cn1cc(-c2cc(NC(=O)NCc3ccc(CC(=O)O)cc3)ccc2-c2ccccc2OC(F)(F)F)cn1 [Example 1-22a, 2-(4-((3-(2-(1-methyl-1H-pyrazol-4-yl)-2′-(trifluoromethoxy)-[1,1′-biphenyl]-4-yl)ureido)methyl)phenyl)acetic acid] | 500 to 5000 | 0 to 40
CC(C(=O)O)c1ccc(CNC(=O)Nc2cc(Cl)c(-c3ccccc3OC(F)(F)F)c(Cl)c2)cc1 (centres unmarked) [Example 1-24, 2-(4-((3-(2,6-dichloro-2′-(trifluoromethoxy)-[1,1′-biphenyl]-4-yl)ureido)methyl)phenyl)propanoic acid] | 500 to 5000 | 
CNS(=O)(=O)c1ccc(CNC(=O)Nc2cc(Cl)c(-c3ccccc3OC(F)(F)F)c(Cl)c2)cc1 [Example 1-5, 4-((3-(2,6-dichloro-2′-(trifluoromethoxy)-[1,1′-biphenyl]-4-yl)ureido)methyl)-N-methylbenzenesulfonamide] | < 500 | 70 to 100
CS(=O)(=O)c1ccc(CNC(=O)Nc2cc(Cl)c(-c3ccccc3OC(F)(F)F)c(Cl)c2)nc1 [Example 1-12, 1-(2,6-dichloro-2′-(trifluoromethoxy)-[1,1′-biphenyl]-4-yl)-3-((5-(methylsulfonyl)pyridine-2-yl)methyl)urea] | < 500 | 
Cn1cc(-c2cccc(OC(F)(F)F)c2-c2ccc(NC(=O)NCc3ccc(CC(=O)O)cc3)cc2)cn1 [Example 1-22b, 2-(4-((3-(2′-(1-methyl-1H-pyrazol-4-yl)-6′-(trifluoromethoxy)-[1,1′-biphenyl]-4-yl)ureido)methyl)phenyl)acetic acid] | 500 to 5000 | 0 to 40
O=C(NCc1ccc(C(=O)O)cc1)Nc1cc(Cl)c(-c2ccccc2OC(F)(F)F)c(Cl)c1 [Example 1-14, 4-((3-(2,6-dichloro-2′-(trifluoromethoxy)-[1,1′-biphenyl]-4-yl)ureido)methyl)benzoic acid] | 500 to 5000 | 0 to 40
Cc1cc(NC(=O)NCc2ccc(CC(=O)O)cc2)cc(Cl)c1-c1ccccc1OC(F)(F)F [Example 1-17, 2-(4-((3-(2-chloro-6-methyl-2′-(trifluoromethoxy)-[1,1′-biphenyl]-4-yl)ureido)methyl)phenyl)acetic acid] | < 500 | 70 to 100
O=C(NCc1ccc(C(F)C(=O)O)cc1)Nc1cc(Cl)c(-c2ccccc2OC(F)(F)F)c(Cl)c1 (centres unmarked) [Example 1-38, 2-(4-((3-(2,6-dichloro-2′-(trifluoromethoxy)-[1,1′-biphenyl]-4-yl)ureido)methyl)phenyl)-2-fluoroacetic acid] | < 500 | 
Cc1cc(NC(=O)NCc2ccc(CC(=O)O)cc2)cc(C)c1-c1ccccc1OC(F)F [Example 1-21, 2-(4-((3-(2′-(difluoromethoxy)-2,6-dimethyl-[1,1′-biphenyl]-4-yl)ureido)methyl)phenyl)acetic acid] | < 500 | 0 to 40
Cc1cc(CC(=O)O)ccc1CNC(=O)Nc1cc(Cl)c(-c2ccccc2OC(F)(F)F)c(Cl)c1 [Example 1-34, 3-(4-((3-(2,6-dichloro-2′-(trifluoromethoxy)-[1,1′-biphenyl]-4-yl)ureido)methyl)-3-methylphenyl)acetic acid] | < 500 | 
CC(C(=O)O)c1ccc(CNC(=O)Nc2cc(Cl)c(-c3ccccc3OC(F)(F)F)c(Cl)c2)nc1 (centres unmarked) [Example 1-30, 2-(6-((3-(2,6-dichloro-2′-(trifluoromethoxy)-[1,1′-biphenyl]-4-yl)ureido)methyl)pyridin-3-yl)propanoic acid] | 500 to 5000 | 
O=C(O)COc1ccc(CNC(=O)Nc2cc(Cl)c(-c3ccccc3OC(F)(F)F)c(Cl)c2)cc1 [Example 1-26, 2-(4-((3-(2,6-dichloro-2′-(trifluoromethoxy)-[1,1′-biphenyl]-4-yl)ureido)methyl)phenoxy)acetic acid] |  | 0 to 40
CCS(=O)(=O)c1ccc(CNC(=O)Nc2cc(Cl)c(-c3ccccc3OC(F)(F)F)c(Cl)c2)cc1 [Example I-1, 1-(2,6-dichloro-2′-(trifluoromethoxy)-[1,1′-biphenyl]-4-yl)-3-(4-(ethylsulfonyl)benzyl)urea] |  | 70 to 100
CCS(=O)(=O)c1ccc(CNC(=O)Nc2cc(Cl)c(-c3ccccc3OC(F)(F)F)c(Cl)c2)nc1 [Example 1-11, 1-(2,6-dichloro-2′-(trifluoromethoxy)-[1,1′-biphenyl]-4-yl)-3-((5-(ethylsulfonyl)pyridine-2-yl)methyl)urea] | < 500 | 
O=C(O)CCc1ccc(CNC(=O)Nc2cc(Cl)c(-c3ccccc3OC(F)(F)F)c(Cl)c2)cc1 [Example 1-36, 3-(4-((3-(2,6-dichloro-2′-(trifluoromethoxy)-[1,1′-biphenyl]-4-yl)ureido)methyl)phenyl)propanoic acid] | 500 to 5000 | 
CCS(=N)(=O)c1ccc(CNC(=O)Nc2cc(Cl)c(-c3ccccc3OC(F)(F)F)c(Cl)c2)cc1 (centres unmarked) [Example 1-9, 1-(2,6-dichloro-2′-(trifluoromethoxv)-[1,1′-biphenyl]-4-yl)-3-(4-(ethylsulfonimidoyl)benzyl)urea] | < 500 | 
CNS(=O)(=O)c1ccc(CNC(=O)Nc2cc(Cl)c(-c3ccccc3OC(F)(F)F)c(Cl)c2)nc1 [Example 1-13, 6-((3-(2,6-dichloro-2′-(trifluoromethoxy)-[1,1′-biphenyl]-4-yl)ureido)methyl)-N-methylpyridine-3-sulfonamide] | < 500 | 
